Experimental data published in paper PMC4398506, “Remodeling of host phosphatidylcholine by Chlamydia acyltransferase is regulated by acyl-CoA binding protein ACBD6 associated with lipid droplets” (MicrobiologyOpen, 2015).

Molecular target: T1, CT775 (Chlamydia LPCAT) (Chlamydia trachomatis, UniProt O84780)
T1 construct: gene CT_775; full-length gene (253 residues predicted) in pET28a, His-tagged, expressed in E. coli BL21DE3; cleared lysate or membrane fraction, not purified
Experiment: radiometric TLC assay of […]PC formation from lysoPC
Type: biochemical
Conditions: labelled compound; acyl donor with 20 umol/L egg lysoPC; pH 7.0, 37 C, Tween-20

T1 sequence (O84780 entry or part of it): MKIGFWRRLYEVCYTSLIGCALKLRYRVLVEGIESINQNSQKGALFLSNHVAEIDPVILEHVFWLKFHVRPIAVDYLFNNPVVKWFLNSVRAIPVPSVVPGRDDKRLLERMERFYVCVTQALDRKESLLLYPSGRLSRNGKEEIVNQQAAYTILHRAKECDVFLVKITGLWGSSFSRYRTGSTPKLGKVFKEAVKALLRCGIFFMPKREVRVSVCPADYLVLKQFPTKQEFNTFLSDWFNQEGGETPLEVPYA

CCCCCCCC/C=C\CCCCCCCC(=O)SCCNC(=O)CCNC(=O)[C@H](O)C(C)(C)COP(=O)(O)OP(=O)(O)OC[C@H]1O[C@@H](n2cnc3c(N)ncnc32)[C@H](O)[C@@H]1OP(=O)(O)O [C18:1-CoA]
radiometric TLC assay of [14C]PC formation from lysoPC: The rate of PC formation by CT775 was dependent on the concentration of oleoyl-CoA
